The target of assay [1] is T1, factor Xa (FXa) (Homo sapiens, UniProt P00742).
T1 construct: purchased R&D Systems, Minneapolis, MN
In words: Biochemical assay for FXa hit validation (fluorogenic 5-FAM/QXL-520 substrate, microplate). The settings on record: for Maximum inhibition (%) / IC50: FXa; for IC50: 30 min preincubation, 25 °C, 4 parameter logistic fit. On the procedure: Biochemical Assay for FXa Hit Validation […]
plate assay buffer). Compound dilutions (2.5 µL) were added to FXa (90 nM, 5 µL) in 384-well black-bottom microplates (Corning Scientific, Corning, NY) in triplicate and […]
(§1) incubated (30 min, 25 °C). […]
added and reaction progress was monitored immediately (λex = 483 nm,λem = 530 nm, 25 °C, CLARIOStar Plus, BMG LABTECH, Ortenberg, Germany). The percent activity was taken as the slope of the fluorescence increase over time (1–10 min) relative to that of a vehicle control. IC50 values were determined by fitting the data to a 4 parameter logistic model using nonlinear regression. […]

Assay [2] addresses T1, factor Xa (FXa). In words: FXa dose-response activity-based DEL screening in droplets, hit replicate count by sequencing. The class given is biochemical. The settings on record: for k-class (30% UV): FXa screen at 30% UV intensity; for k-class (100% UV): FXa screen at 100% UV intensity. As for the experimental part:
FXa Library Screening in Droplets
DEL screening for FXa inhibitors was performed in droplets as previously described,4,8 with modifications. After ligating the closing primer, the library was prepared for droplet screening by exchanging into assay buffer, filtering through a 20 µm Celtrics filter, filter-ing through a previously described microfluidic device,4 and counting a dilution with a hemocytometer to determine bead density. AQ1 input contained fluorogenic FXa peptide substrate (6 µM), internal standard 5(6)-TAMRA (2 µM), DEL beads (∼1500 beads/µL), and a PTFE-encapsulated magnet (to agitate beads periodically; 3 mm dia., V&P Scientific, Inc., San Diego, CA) in FXa droplet assay buffer. AQ2 contained FXa (3.8 ng/µL,∼90 nM) in FXa droplet assay buffer.
OIL2 and OIL3 were neat Novec™ 7500.
UV dosing was delivered through a custom fiber optic cable7 controlled through Labview software (National Instruments, Austin, TX). Slight modifications were made to the pre-viously described confocal LIF detection system and LabVIEW code. 3,4 Briefly, droplet […]
(§2) fluorescence emission was detected by photon counting PMTs (H7828, Hamamatsu, Mid-dlesex, NJ) using a custom two-channel (520 and 570 nm) confocal LIF microscope with […]
(§3) code written in house collected signal data and determines droplet sorting decisions. The […]
(§4) Instruments), and binned into packets of counts (∆t = 0.1 ms). Median-filter smoothing (window width = 3) was applied to the signal in real-time. Droplet signal regions were identified by the 570-nm channel signal (countsn> 200) and 520-nm channel signal maxima (max = countsn−1 when countsn< countsn−1).
A dynamic sorting threshold was calculated in real-time to identify “hit droplets” with reduced 520-nm channel fluorescence. The dynamic threshold was calculated as µ - 4.5σ, where µ andσ were the mean and standard deviation of the last 1000 droplets’ fluorescence values, respectively. Hit droplets were excluded from the fluorescence values used to calculate population mean and standard deviation. […]
DNA sequence pattern matching, aggregation by bead barcode, and unique molecular identifier (UMI) filtering were previously described. 3–5 Sequences with a UMI count≤ 5 were discarded. UV doses associated with hit sequences were filtered using the sequencing barcode (Table S5) introduced during library amplification. Of the remaining sequences, compound replicates (k class) were determined by taking the sum of the sequences having the same synthesis encoding region but distinct bead barcodes.

The target in assay [3] is T2, autotaxin (ATX) (Homo sapiens, UniProt Q13822).
T2 construct: purchased Echelon Biosciences, Salt Lake City, UT
In words: ATX dose-response activity-based DEL screening in droplets, hit replicate count by sequencing. The following applies: for k-class (20% UV): ATX screen at 20% UV intensity; for k-class (100% UV): ATX screen at 100% UV intensity. It is filed as biochemical.
From the text: as §2, §3, §4
A dynamic sorting threshold was calculated in real-time to identify “hit droplets” with reduced 520-nm channel fluorescence. The dynamic threshold was calculated as µ - 4.5σ, where µ andσ were the mean and standard deviation of the last 1000 droplets’ fluorescence values, respectively. Hit droplets were excluded from the fluorescence values used to calculate population mean and standard deviation. When a hit droplet was detected (droplet fluorescence< µ – 4.5σ counts), LabVIEW output a TTL pulse from the DAQ […]
triggering a square wave pulse output (0–7.5 V, 10 kHz, 300 cycles) that was amplified […]
NY) and conducted through luer-lok needle-fitted and microbore tygon tubing filled with liquid metal (gallium:indium:tin alloy 62:22:16 (w%), Alfa Aeser) into a microfabricated […]
ATX Library Screening in Droplets
The ATX droplet screening assay was performed similarly to the FXa assay, but with ATX assay reagents. This was a modification of previously described protocols.4 AQ1 input contained fluorogenic ATX substrate FS-3 9 (10 µM), internal standard 5(6)-TAMRA (5 µM), […]
excised, eluted (C&S buffer, 100 µL, 100 rpm, ON), and pooled for Illumina sequencing at the UCI genomics high throughput facility (MiSeq v2 Nano or MiSeq v2 Micro, paired end).
DNA sequence pattern matching, aggregation by bead barcode, and unique molecular identifier (UMI) filtering were previously described. 3–5 Sequences with a UMI count≤ 5 were discarded. UV doses associated with hit sequences were filtered using the sequencing barcode (Table S5) introduced during library amplification. Of the remaining sequences, compound replicates (k class) were determined by taking the sum of the sequences having the same synthesis encoding region but distinct bead barcodes. […]
(§5) 384-well black-bottom microplates (Corning Scientific, Corning, NY) in triplicate and […]
as §1

The target of assay [4] is T2, autotaxin (ATX). In words: Biochemical assay for ATX hit validation (FS-3 substrate, microplate). The following applies: for Maximum inhibition (%) / IC50: ATX; for IC50: relative IC50, 30 min preincubation, 25 °C, 4 parameter logistic fit. On the procedure:
as §5, §1
Biochemical Assay for ATX Hit Validation […]
plate assay buffer). Compound dilutions (2.5 µL) were added to ATX (100 nM, 5 µL) in 384-well black-bottom microplates (Corning Scientific, Corning, NY) in triplicate and incubated (30 min, 25 °C). FS-3 (20 µM, 2.5 µL) was added and reaction progress was monitored immediately (λex = 483 nm, λem = 530 nm, 25 °C, CLARIOStar Plus, BMG LABTECH). The percent activity was taken as the slope of the fluorescence increase over […]
time (1–10 min) relative to that of a vehicle control. IC50 values were determined by fitting the data to a 4 parameter logistic model using nonlinear regression. […]
Vmax = [S]KM(1 + [I]Ki ) + [S]. […]
v = Vmax(1 + [I]/Ki)[S]. (3)
Rearranging to express relative velocity (v/Vmax):
Vmax = [S](KM + [S])(1 + [I]/Ki). (4)

In assay [5] the test system is FXa. Also on record: method as in PMID 16161994. The settings on record: cited from earlier work.

Entries after “also recorded” stand apart in the source; their conditions may differ.

T1 sequence (P00742 235-488 limits assumed): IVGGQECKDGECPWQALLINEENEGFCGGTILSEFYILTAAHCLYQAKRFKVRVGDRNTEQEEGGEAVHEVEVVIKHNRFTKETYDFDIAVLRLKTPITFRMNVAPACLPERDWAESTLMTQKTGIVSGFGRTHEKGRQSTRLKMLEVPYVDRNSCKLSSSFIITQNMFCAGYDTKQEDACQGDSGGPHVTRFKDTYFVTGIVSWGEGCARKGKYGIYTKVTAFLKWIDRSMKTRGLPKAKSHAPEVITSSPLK
T1 sequence (P00742 41-179 partner limits assumed): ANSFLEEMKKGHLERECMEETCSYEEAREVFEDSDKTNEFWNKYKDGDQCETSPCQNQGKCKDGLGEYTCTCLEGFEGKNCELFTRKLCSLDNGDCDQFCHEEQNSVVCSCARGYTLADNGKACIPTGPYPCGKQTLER

A word on the IC50: it is the concentration at which inhibition is half-maximal. As to `NC(=O)[C@@H](Cc1csc2ccccc12)NC(=O)c1ccc(N2CCCC2=O)cc1` [Hit 1a], in assay [1], the “Maximum inhibition (%)” value was 93% and inhibition was half-maximal at 4.2 ± 0.1 µM (IC50). In addition, in assay [2], the “k-class (30% UV)” value was found to be 14 and the “k-class (100% UV)” value came out at 4.

Turning to `NC(=O)c1cccc(CNC(=O)c2ccc(Cl)s2)c1` [Hit 5a], in assay [1], the “Maximum inhibition (%)” value came to 58% and the IC50 was 19 ± 2 µM. For the same molecule, in assay [2], the “k-class (30% UV)” value came to 10 and the “k-class (100% UV)” value is reported as 8.

With `NC(=O)[C@@H](Cc1csc2ccccc12)NC(=O)c1ccc(N2CCOCC2)cc1` [Hit 1b], in assay [1], the “Maximum inhibition (%)” value is given as 85% and inhibition was half-maximal at 7.4 ± 0.3 µM (IC50). In addition, in assay [2], the “k-class (30% UV)” value amounted to 9 and the “k-class (100% UV)” value is recorded as 4.

`NC(=O)COc1ccc2c(c1)CCc1ccccc1C2NC(=O)c1ccc(Cl)o1` (stereo not drawn) [Hit 13b]: in assay [3], the “k-class (20% UV)” value is on record as 0 and the “k-class (100% UV)” value amounted to 3. Besides, in assay [4], the “Maximum inhibition (%)” value is 26% and inhibition was half-maximal at 6 ± 3 µM (IC50).

For the molecule `NC(=O)Cn1c(=O)n(C2CCN(C(=O)c3ccc(Cl)cc3C(F)(F)F)CC2)c2ccccc21` [Hit 16a], in assay [3], the “k-class (20% UV)” value is 6 and the “k-class (100% UV)” value worked out at 4. For the same molecule, in assay [4], the “ATX inhibition (in words)” value was “inhibited ATX fully”, the “Maximum inhibition (%)” value is listed as 91% and inhibition was half-maximal at 7 ± 2 µM (IC50).

Regarding `NC(=O)c1cccc(CNC(=O)c2csc(Cc3ccccc3)n2)c1` [Hit 12a], in assay [3], the “k-class (20% UV)” value came out at 4 and the “k-class (100% UV)” value is 8. In addition, in assay [4], the “ATX inhibition (in words)” value is on record as “least potent”, the “Maximum inhibition (%)” value is 94% and the IC50 worked out at 28 ± 14 µM.

On to `NC(=O)Cn1c(=O)n(C2CCN(C(=O)c3cnn(CC4CCCCC4)c3)CC2)c2ccccc21` [Hit 16b], for which, in assay [3], the “k-class (20% UV)” value turned out to be 4 and the “k-class (100% UV)” value turned out to be 2. Further, in assay [4], the “ATX inhibition (in words)” value was “inhibited ATX fully”, the “Maximum inhibition (%)” value amounted to 96% and the IC50 was determined as 13 ± 2 µM.

With `NC(=O)[C@@H](Cc1c[nH]c2ccccc12)NC(=O)c1ccc(N2CCCC2=O)cc1` [Hit 2a], in assay [1], the “Maximum inhibition (%)” value amounted to 95% and the 50% inhibitory concentration (IC50) is 9 ± 0.3 µM. In addition, in assay [2], the “k-class (30% UV)” value was found to be 9 and the “k-class (100% UV)” value was 6.

Regarding `Cc1cccn2cc(C(=O)NC3c4ccccc4CCc4cc(OCC(N)=O)ccc43)nc12` (stereo not drawn) [Hit 13a], in assay [3], the “k-class (20% UV)” value is 0 and the “k-class (100% UV)” value turned out to be 3. In assay [4], the “Maximum inhibition (%)” value is 57% and the IC50 amounted to 6 ± 1 µM.

As for `NC(=O)[C@@H]1CCCN1C1CCN(C(=O)c2cn3cc(Cl)ccc3n2)CC1` [Hit 3a], in assay [1], the “Maximum inhibition (%)” value is listed as 28% and the IC50 was greater than 300 µM. In addition, the “FXa inhibition (in words)” value in assay [1] (at 100 μM) is listed as “weakly inhibited FXa”. In addition, in assay [2], the “k-class (30% UV)” value is reported as 8 and the “k-class (100% UV)” value came to 9.

As to `O=C(NC[C@H]1CN(c2ccc(N3CCOCC3=O)cc2)C(=O)O1)c1ccc(Cl)s1` [rivaroxaban, 5-Chloro-N-({(5S)-2-Oxo-3-[4-(3-Oxomorpholin-4-yl)phenyl]-1,3-Oxazolidin-5-yl}methyl)thiophene-2-Carboxamide], the IC50 in assay [5] is […].

On to `NC(=O)c1cccc(CNC(=O)[C@@H]2C[C@H]2c2ccccc2)c1` [Hit 12b], for which, in assay [3], the “k-class (20% UV)” value is reported as 2 and the “k-class (100% UV)” value was found to be 3. Further, in assay [4], the “ATX inhibition (in words)” value is given as “false positive; also recorded: did not inhibit ATX” and the IC50 was greater than 300 µM.

For `NC(=O)c1ccc2c(c1)CCN(C(=O)c1cnn(CC3CCCCC3)c1)C2` [Hit 17a], in assay [3], the “k-class (20% UV)” value was 7 and the “k-class (100% UV)” value is given as 6. Further, in assay [4], the “ATX inhibition (in words)” value is given as “inhibited ATX fully”, the “Maximum inhibition (%)” value worked out at 91% and the IC50 was found to be 1 ± 0.3 µM.

These data come from article PMC10510511, “Dose–Response Activity-Based DNA-Encoded Library Screening” (ACS Medicinal Chemistry Letters, 2023).
